Source: US20120029187A1, “HALOALKYLSULFONANILIDE DERIVATIVE” (Nissan Chemical Industries, Ltd., priority 2009, published 2012)

How the values were obtained:
Assay type in all cases: in vivo
transplanted rice = experiment: Test Example 1: preemergence treatment under submerged conditions, effect on crop; details: dose 2.52 g/a
How it was run: (§1)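 Weed seeds and 2.5-leaf rice seedlings shared each flooded cup of alluvial soil. Dosing, expressed as g per are, was by pouring water-diluted emulsifiable concentrate onto the surface on sowing day. Mortality was graded 0 to 5 after three weeks' growth.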

common chickweed [1] = experiment: Test Example 3: herbicidal effects in soil treatment; details: dose 3.2 g/a
How it was run: (§2)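 Seeds were sown in sterilized diluvial soil and covered with about 1.5 cm of soil. Compounds, formulated as emulsifiable concentrates and diluted with water, were sprayed evenly over the soil surface at set doses in g/a. Herbicidal effect was scored on a rating scale three weeks later.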

wild oat [2] = experiment: as above; details: dose 3.2 g/a
How it was run: as §2

giant foxtail [3] = experiment: as above; details: dose 3.2 g/a
How it was run: as §2

velvetleaf [4] = experiment: as above; details: dose 3.2 g/a
How it was run: as §2

large crabgrass [5] = experiment: as above; details: dose 3.2 g/a
How it was run: as §2

water foxtail [6] = experiment: as above; details: dose 3.2 g/a
How it was run: as §2

barnyardgrass [7] = experiment: as above; details: dose 3.2 g/a
How it was run: as §2

posumbu knotweed [8] = experiment: as above; details: dose 3.2 g/a
How it was run: as §2

Italian ryegrass [9] = experiment: as above; details: dose 3.2 g/a
How it was run: as §2

common lambsquater [10] = experiment: as above; details: dose 3.2 g/a
How it was run: as §2

common ragweed [11] = experiment: as above; details: dose 3.2 g/a
How it was run: as §2

redroot pigweed [12] = experiment: as above; details: dose 3.2 g/a
How it was run: as §2

beadstraw [13] = experiment: as above; details: dose 3.2 g/a
How it was run: as §2

bulrush [14] = experiment: Test Example 2: herbicidal effects during the vegetation period under submerged conditions; details: treatment during the vegetation period under submerged conditions; dose 2.52 g/a
How it was run: (§3)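 Barnyardgrass, bulrush and ducksalad were co-sown in alluvial soil flooded to 4 cm and grown in a greenhouse at 25 to 30° C. At the 1- or 2-leaf stage, water-diluted emulsifiable concentrates went onto the water surface at set doses (g/a). Herbicidal effect was scored three weeks later on a graded scale.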

ducksalad [15] = experiment: as above; details: treatment during the vegetation period under submerged conditions; dose 2.52 g/a
How it was run: as §3

barnyardgrass [16] = experiment: as above; details: treatment during the vegetation period under submerged conditions; dose 2.52 g/a
How it was run: as §3

common chickweed [17] = experiment: Test Example 4: herbicidal effect in foliage treatment; details: dose 3.2 g/a, three weeks after application
How it was run: (§4)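 Foliar spray, post-emergence: 14-day-old greenhouse plants (25–30° C, diluvial soil) treated with water-diluted EC at set g/a doses; visual herbicidal score at 3 wk post-application.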

wild oat [18] = experiment: as above; details: dose 3.2 g/a, three weeks after application
How it was run: as §4

giant foxtail [19] = experiment: as above; details: dose 3.2 g/a, three weeks after application
How it was run: as §4

velvetleaf [20] = experiment: as above; details: dose 3.2 g/a, three weeks after application
How it was run: as §4

large crabgrass [21] = experiment: as above; details: dose 3.2 g/a, three weeks after application
How it was run: as §4

water foxtail [22] = experiment: as above; details: dose 3.2 g/a, three weeks after application
How it was run: as §4

barnyardgrass [23] = experiment: as above; details: dose 3.2 g/a, three weeks after application
How it was run: as §4

posumbu knotweed [24] = experiment: as above; details: dose 3.2 g/a, three weeks after application
How it was run: as §4

Italian ryegrass [25] = experiment: as above; details: dose 3.2 g/a, three weeks after application
How it was run: as §4

common lambsquater [26] = experiment: as above; details: dose 3.2 g/a, three weeks after application
How it was run: as §4

common ragweed [27] = experiment: as above; details: dose 3.2 g/a, three weeks after application
How it was run: as §4

redroot pigweed [28] = experiment: as above; details: dose 3.2 g/a, three weeks after application
How it was run: as §4

beadstraw [29] = experiment: as above; details: dose 3.2 g/a, three weeks after application
How it was run: as §4

bulrush [30] = experiment: Test Example 1: herbicidal effects in preemergence treatment under submerged conditions; details: dose 2.52 g/a
How it was run: as §1

ducksalad [31] = experiment: as above; details: dose 2.52 g/a
How it was run: as §1

barnyardgrass [32] = experiment: as above; details: dose 2.52 g/a
How it was run: as §1

SMILES | a: transplanted rice, effect on crop (evaluation scale 0-5) (transplanted rice) | N: common chickweed, herbicidal effect (evaluation scale 0-5) (common chickweed [1]) | F: wild oat, herbicidal effect (evaluation scale 0-5) (wild oat [2]) | E: giant foxtail, herbicidal effect (evaluation scale 0-5) (giant foxtail [3]) | I: velvetleaf, herbicidal effect (evaluation scale 0-5) (velvetleaf [4]) | D: large crabgrass, herbicidal effect (evaluation scale 0-5) (large crabgrass [5]) | G: water foxtail, herbicidal effect (evaluation scale 0-5) (water foxtail [6]) | A: barnyardgrass, herbicidal effect (evaluation scale 0-5) (barnyardgrass [7]) | M: posumbu knotweed, herbicidal effect (evaluation scale 0-5) (posumbu knotweed [8]) | H: Italian ryegrass, herbicidal effect (evaluation scale 0-5) (Italian ryegrass [9]) | L: common lambsquater, herbicidal effect (evaluation scale 0-5) (common lambsquater [10]) | J: common ragweed, herbicidal effect (evaluation scale 0-5) (common ragweed [11]) | K: redroot pigweed, herbicidal effect (evaluation scale 0-5) (redroot pigweed [12]) | O: beadstraw, herbicidal effect (evaluation scale 0-5) (beadstraw [13]) | B: bulrush, herbicidal effect (evaluation scale 0-5) (bulrush [14]) | C: ducksalad, herbicidal effect (evaluation scale 0-5) (ducksalad [15]) | A: barnyardgrass, herbicidal effect (evaluation scale 0-5) (barnyardgrass [16]) | N: common chickweed, herbicidal effect (common chickweed [17]) | F: wild oat, herbicidal effect (wild oat [18]) | E: giant foxtail, herbicidal effect (giant foxtail [19]) | further results
CN(c1ccccc1CN1COC(C)(C)CC1=O)S(=O)(=O)C(F)(F)F [II-18] | 0 (mortality of less than 5% (almost ineffective)) | 4 (mortality of at least 70% and less than 90%) | 0 (mortality of less than 5% (almost ineffective)) | 0 (mortality of less than 5% (almost ineffective)) | 0 (mortality of less than 5% (almost ineffective)) | 0 (mortality of less than 5% (almost ineffective)) | 0 (mortality of less than 5% (almost ineffective)) | 4 (mortality of at least 70% and less than 90%) | 0 (mortality of less than 5% (almost ineffective)) | 0 (mortality of less than 5% (almost ineffective)) | 0 (mortality of less than 5% (almost ineffective)) | 4 (mortality of at least 70% and less than 90%) | 0 (mortality of less than 5% (almost ineffective)) | 4 (mortality of at least 70% and less than 90%) | 5 (mortality of 90% or above (nearly complete death)) | 2 (mortality of at least 20% and less than 40%) | 5 (mortality of 90% or above (nearly complete death)) | 4 (mortality of at least 70% and less than 90%) | 0 (mortality of less than 5% (almost ineffective)) | 0 (mortality of less than 5% (almost ineffective)) | I: velvetleaf, herbicidal effect (velvetleaf [20]): 0 (mortality of less than 5% (almost ineffective)); D: large crabgrass, herbicidal effect (large crabgrass [21]): 0 (mortality of less than 5% (almost ineffective)); G: water foxtail, herbicidal effect (water foxtail [22]): 0 (mortality of less than 5% (almost ineffective)); A: barnyardgrass, herbicidal effect (barnyardgrass [23]): 4 (mortality of at least 70% and less than 90%); M: posumbu knotweed, herbicidal effect (posumbu knotweed [24]): 3 (mortality of at least 40% and less than 70%); H: Italian ryegrass, herbicidal effect (Italian ryegrass [25]): 0 (mortality of less than 5% (almost ineffective)); L: common lambsquater, herbicidal effect (common lambsquater [26]): 0 (mortality of less than 5% (almost ineffective)); J: common ragweed, herbicidal effect (common ragweed [27]): 3 (mortality of at least 40% and less than 70%); K: redroot pigweed, herbicidal effect (redroot pigweed [28]): 0 (mortality of less than 5% (almost ineffective)); O: beadstraw, herbicidal effect (beadstraw [29]): 5 (mortality of 90% or above (nearly complete death)); B: bulrush, herbicidal effect (evaluation scale 0-5) (bulrush [30]): 5 (mortality of 90% or above (nearly complete death)); C: ducksalad, herbicidal effect (evaluation scale 0-5) (ducksalad [31]): 0 (mortality of less than 5% (almost ineffective)); A: barnyardgrass, herbicidal effect (evaluation scale 0-5) (barnyardgrass [32]): 2 (mortality of at least 20% and less than 40%)
CC1(C)OCN(Cc2ccccc2NS(=O)(=O)C(F)(F)F)C(=O)C1F (stereo not drawn) [II-32] | 0 (mortality of less than 5% (almost ineffective)) | 3 (mortality of at least 40% and less than 70%) | 0 (mortality of less than 5% (almost ineffective)) | 4 (mortality of at least 70% and less than 90%) | 3 (mortality of at least 40% and less than 70%) | 5 (mortality of 90% or above (nearly complete death)) | 5 (mortality of 90% or above (nearly complete death)) | 5 (mortality of 90% or above (nearly complete death)) | 4 (mortality of at least 70% and less than 90%) | 5 (mortality of 90% or above (nearly complete death)) | 0 (mortality of less than 5% (almost ineffective)) | 5 (mortality of 90% or above (nearly complete death)) | 3 (mortality of at least 40% and less than 70%) | 3 (mortality of at least 40% and less than 70%) | 5 (mortality of 90% or above (nearly complete death)) | 5 (mortality of 90% or above (nearly complete death)) | 5 (mortality of 90% or above (nearly complete death)) | 3 (mortality of at least 40% and less than 70%) | 2 (mortality of at least 20% and less than 40%) | 4 (mortality of at least 70% and less than 90%) | I: velvetleaf, herbicidal effect (velvetleaf [20]): 4 (mortality of at least 70% and less than 90%); D: large crabgrass, herbicidal effect (large crabgrass [21]): 4 (mortality of at least 70% and less than 90%); G: water foxtail, herbicidal effect (water foxtail [22]): 5 (mortality of 90% or above (nearly complete death)); A: barnyardgrass, herbicidal effect (barnyardgrass [23]): 5 (mortality of 90% or above (nearly complete death)); M: posumbu knotweed, herbicidal effect (posumbu knotweed [24]): 2 (mortality of at least 20% and less than 40%); H: Italian ryegrass, herbicidal effect (Italian ryegrass [25]): 4 (mortality of at least 70% and less than 90%); L: common lambsquater, herbicidal effect (common lambsquater [26]): 2 (mortality of at least 20% and less than 40%); J: common ragweed, herbicidal effect (common ragweed [27]): 3 (mortality of at least 40% and less than 70%); K: redroot pigweed, herbicidal effect (redroot pigweed [28]): 1 (mortality of at least 5% and less than 20%); O: beadstraw, herbicidal effect (beadstraw [29]): 4 (mortality of at least 70% and less than 90%); B: bulrush, herbicidal effect (evaluation scale 0-5) (bulrush [30]): 5 (mortality of 90% or above (nearly complete death)); C: ducksalad, herbicidal effect (evaluation scale 0-5) (ducksalad [31]): 5 (mortality of 90% or above (nearly complete death)); A: barnyardgrass, herbicidal effect (evaluation scale 0-5) (barnyardgrass [32]): 5 (mortality of 90% or above (nearly complete death))
